Patent US9090617B1, “Agonists of Src homology-2 containing protein tyrosine phosphatase-1 and treatment methods using the same” (National Taiwan University, priority 2011, dated 2015)
Entries after “also recorded” stand apart in the source; their conditions may differ. Where two headings read alike, the source gives them in different places.

Assays:
phospho-STAT3 (Tyr705) = assay: Phospho-STAT3 (Tyr705) sandwich ELISA; assay type: cell-based
Protocol: A PathScan Phospho-Stat3 (Tyr705) Sandwich ELISA Kit was used for the detection of phospho-STAT3 (Cell Signaling, Danvers, Mass.). Cells were pre-treated with IL-6 1 ng/ml and then exposed with various compounds at 10 μM for 24 h. After incubation with cell lysates, both non-phospho- and phospho-Stat3 proteins are captured by the coated antibody. The expression of phospho-STAT3 was measured at 450 nm absorbance.
The decreased level of P-STAT3 induced by these derivatives was correlated with cell toxicity. In the other words, these derivatives induced cell death in part through inhibition of STAT3.
We also assayed the activation status of p-STAT3 by STAT3 ELISA. […] SC-1 or sorafenib-treated cell extracts were incubated with antibody against phosphorylated STAT3 at Y705. […] To evaluate the transcriptional activity, STAT3-binding region was cloned into Luc reporter. […] The firefly luciferase activity was evaluated and normalized by Renilla luciferase.
p-STAT3 activity: PLC5 cells treated with SC derivatives were collected in RIPA buffer and analyzed in p-STAT3 ELISA kit. The assay protocol follows the manufacturer.

[1] = tested on: MDAMB231, MDAMB468, MCF-7, HL-60, KG-1 and ML-1; assay: Anti-proliferation in breast cancer and leukemia cell lines; assay type: cell-based; conditions: MDAMB231, MDAMB468, MCF-7, HL-60, KG-1, ML-1
Protocol: The Huh-7 HCC cell line was obtained from the Health Science Research Resources Bank (Osaka, Japan; JCRB0403). The PLC/PRF/5 (PLC5), Sk-Hep-1, and Hep3B cell lines were obtained from American Type Culture Collection (Manassas, Va.). The cells were maintained in DMEM supplemented with 10% FBS, 100 units/mL penicillin G, 100 μg/mL streptomycin sulfate and 25 μg/mL amphotericin B in a 37° C. humidified incubator in an atmosphere of 5% CO2 in air. Other cell lines, including breast cancer cells e.g. MDAMB231, MDAMB468, MCF-7, and leukemia cancer cells e.g. HL-60, KG-1 and ML-1 are also provided for the assays described below.
We also examed the effects of SC-1 and SC-43 in other cancer cell lines, including breast cancer cell lines e.g. MDAMB231, MDAMB468, MCF-7, and leukemia cancer cell lines e.g. HL-60, KG-1 and ML-1.

Huh-7 tumors = tested on: Huh-7 tumors
Protocol: Male NCr athymic nude mice (5-7 weeks of age) were obtained from the National Laboratory Animal Center (Taipei, Taiwan). All experimental procedures using these mice were performed in accordance with protocols approved by National Taiwan University. […] Controls received vehicle (Chen K F et al. Cancer Res. 2008; 68:6698-6707).

STAT3 = STAT3 luciferase reporter assay; assay type: cell-based; conditions: 10 μM, 24 h
Protocol: Cells were seeded in 96-well plate and pre-treated with IL-6 at the dose […] for 30 min. The STAT3 reporter kit was purchased from SABiosciences (Frederick, Md.).
STAT3 reporter assay: PLC5 cells were seeded in a 96-well plate. Cells were pretransfected with STAT3 reporter construct for 24 h and treated with derivatives for another 24 h. The STAT3 Reporter Kit was purchased from SABiosciences.

[2] = tested on: p-STAT3, cyclin D1, survivin, Mc1-1; assay: Western blot of STAT3-related proteins in HCC cells; assay type: cell-based; conditions: HCC cells, 24 h
Protocol: Cells were treated with various compounds at 5 and 10 μM for 24 h. Cell lysates were analyzed by western blot.
HCC cells treated with SC-43 (10 μM for 24 h) were collected with RIPA lysis buffer. Antibodies for immunoblotting such as cyclin D1 was purchased from Santa Cruz Biotechnology. Other antibodies such as survivin, phospho-STAT3 (Tyr705), STAT3, Mc1-1, SOCS1, and SOCS3 were from Cell Signaling.

HCC cells [3] = assay: cells
Text: Points, mean; bars, SD (n=6).
Points, mean; bars, SD ([…]). […] The N-SH2 domain is in orange, the C-SH2 domain is in marine, the PTP domain is in hot pink, and the linkers between them are in gray. […] ELISA, enzyme-linked immunosorbent assay.

PLC5 cells = assay: MTT assay for cell growth inhibition in PLC5 cells; assay type: cell-based
Protocol: These compounds were analyzed by MTT assay for cell growth inhibition in the PLC5 cells.
Next, we changed the pyridine to a quinoline ring and amide linker to generate compounds 12-25. These compounds were also analyzed by MTT assay for cell growth inhibition in the PLC5 cells.

HCC cells [4] = assay: Apoptosis analysis by flow cytometry (sub-G1); assay type: cell-based; conditions: for apoptosis (sub-G1): HCC cells, 24 h
Protocol: Apoptotic cells were measured by flow cytometry (sub-G1). After treatment with various compounds, cells were trypsinized, collected by centrifugation and resuspended in PBS. After centrifugation, the cells were washed in PBS and resuspended in […] (PI) staining solution. Specimens were incubated in the dark for 30 min at 37° C. and then analyzed with an EPICS Profile II flow cytometer (Coulter Corp., Hialeah, Fla.). All experiments were performed in triplicate
Collected cells were fixed in 75% Ethanol and stained with 20 ug/ml Propidium Iodide (PI). Sub-G1 analysis was performed by flow-cytometry. […] Points, mean; bars, SD (n=6).

JAK2 = target: T1, JAK2 (Homo sapiens, UniProt O60674); assay: JAK2 kinase activity; assay type: cell-based; conditions: PLC5 cells, 10 μM, 24 h
T1 construct: endogenous in cells; host or cells: PLC5
T1 sequence (O60674 whole entry): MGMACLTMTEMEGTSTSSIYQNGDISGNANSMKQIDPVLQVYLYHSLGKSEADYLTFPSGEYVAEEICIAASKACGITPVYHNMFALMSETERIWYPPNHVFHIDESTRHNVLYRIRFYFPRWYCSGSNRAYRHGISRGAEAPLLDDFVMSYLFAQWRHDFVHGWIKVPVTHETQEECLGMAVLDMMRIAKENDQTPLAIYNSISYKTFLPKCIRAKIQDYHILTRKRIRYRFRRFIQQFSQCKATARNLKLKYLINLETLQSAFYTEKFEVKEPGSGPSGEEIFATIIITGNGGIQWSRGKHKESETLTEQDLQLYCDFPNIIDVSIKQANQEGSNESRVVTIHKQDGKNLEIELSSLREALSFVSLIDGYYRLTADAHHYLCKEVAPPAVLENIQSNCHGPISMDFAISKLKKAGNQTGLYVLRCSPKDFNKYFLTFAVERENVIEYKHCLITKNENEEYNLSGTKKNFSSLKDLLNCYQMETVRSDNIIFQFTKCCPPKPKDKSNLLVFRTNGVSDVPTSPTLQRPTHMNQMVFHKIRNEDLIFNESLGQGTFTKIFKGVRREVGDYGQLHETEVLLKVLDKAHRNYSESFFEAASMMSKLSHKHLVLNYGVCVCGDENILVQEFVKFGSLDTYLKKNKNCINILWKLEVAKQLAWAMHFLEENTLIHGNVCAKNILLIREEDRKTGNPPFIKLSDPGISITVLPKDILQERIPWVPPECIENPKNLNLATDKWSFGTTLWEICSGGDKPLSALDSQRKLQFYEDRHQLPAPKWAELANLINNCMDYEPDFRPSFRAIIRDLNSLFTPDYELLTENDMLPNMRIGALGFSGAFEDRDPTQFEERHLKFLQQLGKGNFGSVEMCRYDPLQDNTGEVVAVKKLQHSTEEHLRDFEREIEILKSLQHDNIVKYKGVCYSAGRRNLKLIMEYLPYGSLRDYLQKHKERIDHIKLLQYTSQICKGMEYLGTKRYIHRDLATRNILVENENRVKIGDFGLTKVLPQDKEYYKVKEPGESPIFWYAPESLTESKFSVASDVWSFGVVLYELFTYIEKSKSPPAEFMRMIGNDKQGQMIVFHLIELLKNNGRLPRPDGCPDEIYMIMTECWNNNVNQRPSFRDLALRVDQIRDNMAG
Text: (§1) The RediPlate 96 EnzChek® Tyrosine Phosphatase Assay Kit (R-22067) was used for SHP-1 activity assay (Molecular Probes, Carlsbad, Calif.). The Raf-1 kinase cascade assay kit (Upstate-Millipore, Billerica, Mass.) was used to examine the Raf-1 kinase activity. The JAK2 kinase activity kit was purchased from Reaction Biology Corp. (Malvern, Pa.).

SHP-1 [5] = target: T2, SHP-1 (Homo sapiens, UniProt P29350); assay: Phosphatase activity of SHP-1 immunoprecipitated from PLC5 cells, incubated with compound in vitro; assay type: biochemical; parameters: PLC5 protein extract was incubated with anti-SHP-1 antibody in immunoprecipitation buffer overnight; endogenous in cells; host or cells: PLC5 (PLC/PRF/5)
T2 sequence (P29350 whole entry): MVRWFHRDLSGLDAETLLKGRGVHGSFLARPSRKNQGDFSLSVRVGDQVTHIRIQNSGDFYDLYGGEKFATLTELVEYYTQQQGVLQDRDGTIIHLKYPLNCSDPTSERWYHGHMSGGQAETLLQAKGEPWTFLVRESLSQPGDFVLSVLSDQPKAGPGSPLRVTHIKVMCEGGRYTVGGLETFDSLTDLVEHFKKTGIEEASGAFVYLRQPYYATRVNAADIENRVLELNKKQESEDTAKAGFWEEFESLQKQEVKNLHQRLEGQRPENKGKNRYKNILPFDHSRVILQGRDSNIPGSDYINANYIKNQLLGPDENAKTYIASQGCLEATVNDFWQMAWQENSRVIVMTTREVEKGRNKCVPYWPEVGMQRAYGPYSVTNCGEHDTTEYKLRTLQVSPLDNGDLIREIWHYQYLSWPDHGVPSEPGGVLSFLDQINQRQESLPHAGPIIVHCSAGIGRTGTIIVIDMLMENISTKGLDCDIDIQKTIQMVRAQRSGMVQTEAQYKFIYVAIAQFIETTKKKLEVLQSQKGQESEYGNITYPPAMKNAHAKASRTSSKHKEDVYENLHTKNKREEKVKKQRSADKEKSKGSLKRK
Protocol: PLC5 protein extract was incubated with anti-SHP-1 antibody in immunoprecipitation buffer overnight. Protein G Sepharose 4 Fast flow (GE Healthcare Bio-Science) was added to each sample, followed by incubation for 3 hours at 4° C. with rotation. […] RediPlate 96 EnzChek Tyrosine Phosphatase Assay kit (R-22067) was used for SHP-1 activity assay (Molecular Probes).

Raf-1 = target: T3, Raf-1 (Homo sapiens, UniProt P04049); assay: Raf-1 kinase activity in lysates of treated cells; assay type: cell-based
T3 construct: Raf-1 immunoprecipitated from PLC5 cell extracts was incubated with MEK recombinant protein; endogenous in cells; host or cells: PLC5
T3 sequence (P04049 whole entry): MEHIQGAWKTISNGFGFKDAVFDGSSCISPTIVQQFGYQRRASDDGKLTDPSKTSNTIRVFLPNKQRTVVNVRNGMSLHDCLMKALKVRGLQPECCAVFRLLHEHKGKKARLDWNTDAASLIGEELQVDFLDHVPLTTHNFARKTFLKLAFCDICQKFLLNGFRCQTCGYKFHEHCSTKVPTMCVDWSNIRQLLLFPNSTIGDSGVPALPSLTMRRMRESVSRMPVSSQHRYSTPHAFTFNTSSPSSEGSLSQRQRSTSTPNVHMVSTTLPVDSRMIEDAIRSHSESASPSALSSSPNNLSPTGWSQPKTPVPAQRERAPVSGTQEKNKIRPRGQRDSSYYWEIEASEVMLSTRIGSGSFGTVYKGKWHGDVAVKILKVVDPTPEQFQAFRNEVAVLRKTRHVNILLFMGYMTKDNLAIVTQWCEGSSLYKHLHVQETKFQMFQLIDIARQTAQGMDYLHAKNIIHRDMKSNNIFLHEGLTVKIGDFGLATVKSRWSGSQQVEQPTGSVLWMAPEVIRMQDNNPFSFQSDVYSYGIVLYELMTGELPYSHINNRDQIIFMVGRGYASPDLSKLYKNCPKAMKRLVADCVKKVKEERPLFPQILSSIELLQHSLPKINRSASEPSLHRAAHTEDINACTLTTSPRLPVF
Text: as §1

[6] = tested on: PLC5/luc2 orthotopic tumors; assay: HCC orthotopic model with PLC5/luc2 cells; assay type: in vivo, mice; conditions: 10 mg/kg/day orally
Protocol: All experimental procedures using these mice were done in accordance with protocols approved by the Institutional Laboratory Animal Care and Use Committee of National Taiwan University. Each mouse was inoculated within liver […] with 1×10^4 PLC5/luc cells suspended in 0.1 mL of serum-free medium containing 50% Matrigel (BD Biosciences). […] Tumor growth was monitored by non-invasive in vivo imaging system (IVIS) image system twice weekly.
(§2) We established an HCC orthotopic model using luc2-expressed PLC5 cells inoculated into liver of nude mice. […] To further correlate the molecular mechanism with the anticancer effect in vivo, p-STAT3 and SHP-1 activity in tumor extract from vehicle- and SC-treated mice was analyzed by immunoblotting. […] The pharmacokinetics of SC-43 was determined (FIG. 25E).

SHP-1 [7] = target: T2, SHP-1; assay: Phosphatase activity of recombinant SHP-1; assay type: biochemical; conditions: 25 ng protein, 30 minutes
Protocol: RediPlate 96 EnzChek Tyrosine Phosphatase Assay kit (R-22067) was used for SHP-1 activity assay (Molecular Probes). Recombinant SHP-1 protein (25 ng) was incubated with either SC-43 or SC-40 at the indicated dose for 30 minutes and then analyzed by SHP-1 phosphatase activity.

PLC5 tumors = assay: Subcutaneous PLC5 xenograft; assay type: in vivo, mice; conditions: 10 mg/kg/day orally
Protocol: All experimental procedures using these mice were done in accordance with protocols approved by the Institutional Laboratory Animal Care and Use Committee of National Taiwan University. Each mouse was inoculated s.c. in the dorsal flank with 1×10^6 PLC5 cells suspended in 0.1 mL of serum-free medium containing 50% Matrigel (BD Biosciences). When tumors reached 100 to 200 mm3, mice received SC-40 tosylate (10 or 20 mg/kg) orally once daily. Tumors were measured weekly using calipers, and their volumes were calculated using the following standard formula: width×length×height×0.52.
as §2

HCC-bearing mice = assay: Antitumor effect of SC-43 in HCC-bearing mice; conditions: mouse, in vivo
Protocol: SHP-1/STAT3-related signaling pathway acts as a vital target for the anti-tumor effect of SC-43. See FIG. 22 (A) the cytotoxicity of SC-43 in HCC cells, (B) the antitumor effect of SC-43 in HCC-bearing mice, (C) the activity of SHP-1 induced by SC-43, and (D) Western blot analysis of p-STAT3 and STAT3 in HCC cells treated by SC-43 (10 μM and 20 μM).

[8] = Pharmacokinetics of SC-43; assay type: in vivo; conditions: compared with literature report for sorafenib
Protocol: as §2

SMILES: N#Cc1ccc(Oc2ccc(NC(=O)Nc3ccc(Cl)c(C(F)(F)F)c3)cc2)cc1 [Compound 1, 1-(4-Chloro-3-(trifluoromethyl)phenyl)-3-(4-(4-cyanophenoxyl)phenyl)urea]
- P-STAT3 state by ELISA (phospho-STAT3 (Tyr705); PLC5 cells, IL-6 stimulated, 10 uM, 24 h): showed a high degree of dephosphorylation of STAT3; also recorded: exhibited the same level of downregulation of P-STAT3 as sorafenib did
- activity of p-STAT3 by STAT3 ELISA (phospho-STAT3 (Tyr705); Sk-Hep1 cells pre-treated with IL-6, 24 h): decreased the activity of p-STAT3 significantly
- growth of breast cancer and leukemia cell lines [1]: effective in inhibiting the growth of cancer cells
- tumor size relative to vehicle-treated mice at the end of treatment (Huh-7 tumors; Huh-7 xenograft, 10 mg/kg p.o. once daily): 25%
- SHP-1 activity in Huh-7 tumors (Huh-7 tumors; tumor extract): induced significant rising of SHP-1 activity
- p-STAT3 in Huh-7 tumors (Huh-7 tumors; tumor extract, Western blot): down regulated p-STAT3
- transcription activity of STAT3 (Luc reporter) (STAT3): transcription activity of STAT3 was significantly decreased
- p-STAT3 and STAT3-related proteins (Western blot) [2]: down-regulated p-STAT3 at Y705 residue and suppressed Mc1-1 and cyclin D1
- viability of HCC cells / cytotoxicity (HCC cells [3]): decreased the viability of various HCC cells
- IC50 (PLC5 cells): 7.5 µM
- apoptosis (sub-G1) (HCC cells [4]): showed a significant increase in sub-G1 phase population
- kinase activity of JAK2 (JAK2): neither sorafenib nor SC-1 altered the kinase activity of JAK2
- activity of SHP-1 in SHP-1 immunoprecipitates incubated with drug (SHP-1 [5]; PLC5 lysates, incubated 6 hours): increase the activity of SHP-1
- expression of p-VEGFR2 (Tyr1175) (p-VEGFR2 (Tyr1175)): did not have significant effect
- Raf-1 activity versus vehicle control (Raf-1; PLC5 cells (FIG. 3)): showed the same Raf-1 activity as vehicle control
- inhibition of Raf-1 activity (Raf-1; Raf-1 immunoprecipitated from PLC5 or Hep3B cell extracts, 10 μM, 24 h): did not inhibit the activity of Raf-1

SMILES: N#Cc1ccc(Oc2cccc(NC(=O)Nc3ccc(Cl)c(C(F)(F)F)c3)c2)cc1 [SC-43, 1-(3-(4-cyanophenoxyl)phenyl)-3-(4-chloro-3-(trifluoromethyl)phenyl)urea]
- p-STAT3 / STAT3 activity (phospho-STAT3 ELISA and luciferase reporter) (phospho-STAT3 (Tyr705); PLC5 cells): induce strong inhibition of p-STAT3 activity; also recorded: showed more potent inhibition of the p-STAT3-related signaling pathway
- growth of breast cancer and leukemia cell lines [1]: effective in inhibiting the growth of cancer cells
- anti-HCC effect and survival in orthotopic model [6]: had an evident anti-HCC effect and significant survival benefit
- phosphatase activity of recombinant SHP-1 (SHP-1 [7]): increase phosphatase activity of SHP-1 in vitro
- p-STAT3 and STAT3-related proteins (Western blot) [2]: down-regulates phospho-STAT3-related signaling pathway in HCC; also recorded: shows better inhibition of p-STAT3-related signaling pathway than sorafenib; also recorded: revealed submicromolar inactivation of p-STAT3, relative to sorafenib
- viability of HCC cells / cytotoxicity (HCC cells [3]; 72 h): showed lower 50% inhibitory concentration, compared to sorafenib
- IC50 (HCC cells [3]; read-out: IC50, cytotoxicity in HCC cells): ~0.5 µM
- p-STAT3 and SHP-1 activity in PLC5 tumor lysate (PLC5 tumors): Down-regulation of p-STAT3 and elevation of SHP-1 activity
- average tumor size versus control mice at the end of treatment (PLC5 tumors; SC PLC5 tumor-bearing mice): less than half that of control mice
- tumor growth inhibition in HCC-bearing mice (HCC-bearing mice): significantly causes tumor growth inhibition in HCC-bearing mice
- apoptosis (sub-G1) (HCC cells [4]): show significant anti-cancer effects in HCC cells
- apoptosis in sorafenib-resistant cells (HCC cells [4]; sorafenib-resistant HCC cells (SR1)): resulted in significant apoptosis in sorafenib-resistant cells at submicromolar concentrations
- stability in vivo (pharmacokinetics) [8]: exhibited a longer period of stability in vivo than that reported for sorafenib
- phosphatase activity of SHP-1 in vitro (SHP-1 [5]; SHP-1-containing PLC5 extract, 10 or 100 nmol/L, 30 min, 4° C.): increase phosphatase activity of SHP-1 in vitro
